These results are taken from patent publication US20230416329A1, “A PEPTIDE WITH DISULFIDE BONDS AND INHIBITORY ACTIVITY AGAINST SERINE PROTEASES, DERIVED HYBRID PEPTIDES THEREOF, AND USES THEREOF” (INSTITUTE OF MATERIA MEDICA , CHINESE ACADEMY OF MEDICAL …, priority 2020, published 2023).

Bridge positions count the residues as written; N and C are the ends. Peptide text beside a SMILES is read from it.

One data set has as its target chymotrypsin (Bos taurus, UniProt P00766). Description: in vitro. The following applies: for Remaining peak area (%)/chymotrypsin: 0 h; for remaining at 0.025 h, 60 μM / remaining at 0.05 h, 60 μM / remaining at 0.075 h, 60 μM / remaining at 0.1 h, 60 μM / remaining at 0.15 h, 60 μM / remaining at 0.25 h, 60 μM / remaining at 0.5 h, 60 μM / remaining at 1 h, 60 μM: isolated enzyme chymotrypsin, pH 7.8, Remaining peak area (%)/chymotrypsin. How it is done: FIG. 18. […] At different time point, 25 μL aliquots was taken out, and 10% (v/v) TFA was added to terminate the reaction.
(§1) Mix by centrifugation at 8000 rpm for 30 seconds.
Arrange a certain volume of 0.05 μg/μL chymotrypsin solution in another sterile EP. Incubate the EP tubes containing peptides and enzymes at 37° C. for 5 min, and add 3 μL of […] solution to each EP tube containing peptides and mix well. Start timing and extract 25 μL of reaction solution at 1.5, 3.0, 4.5, 6.0 and 9.0 min later, respectively. Add 3.75 μL of 10% TFA to terminate the reaction and mix well by centrifugation at 8000 rpm for 30 seconds.
Arrange a certain volume of 0.05 μg/μL chymotrypsin solution in another sterile EP. Incubate the EP tubes containing peptides and enzymes at 37° C. for 5 min, and then add 4.5 μL of chymotrypsin solution to each EP tube containing peptides and mix well. Start timing and extract 25 μL of reaction solution at 1.5, 3.0, 4.5, 6.0, 9.0, 15.0, 30.0, and 60.0 min later, respectively. Add 3.75 μL of 10% TFA to terminate the reaction and mix well by centrifugation at 8000 rpm for 30 seconds.
(§2) Referring to the experimental method in Example 5, in vitro stability of salmon Calcitonin analogs with oral administration activity to the enzymatic hydrolysis by trypsin, chymotrypsin and elastase were performed.
(§3) Referring to the experimental method in Example 5, in vitro stability of IL-17A inhibitory peptides towards the enzymatic hydrolysis by trypsin, chymotrypsin and elastase were performed.

For another data set, the target named is T1, trypsin (Bos taurus, UniProt P00760).
T1 sequence (P00760 24-246): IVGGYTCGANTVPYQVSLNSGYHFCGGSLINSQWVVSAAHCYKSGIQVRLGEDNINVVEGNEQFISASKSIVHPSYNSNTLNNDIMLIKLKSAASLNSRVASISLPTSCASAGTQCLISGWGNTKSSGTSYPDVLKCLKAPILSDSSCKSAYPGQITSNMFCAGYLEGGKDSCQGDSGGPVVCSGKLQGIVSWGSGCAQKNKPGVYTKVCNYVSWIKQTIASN
Description: in vitro. How it is done: FIG. 17. […] At different time point, 25 μL aliquots was taken out, and 10% (v/v) TFA was added to terminate the reaction.
as §1
Arrange a certain volume of 0.05 μg/μL trypsin solution in another sterile EP. Incubate the EP tubes containing peptides and enzymes at 37° C. for 5 min, and separately add 6 μL of trypsin solution to each EP tube containing peptides and mix well. Start timing and extract 25 μL of reaction solution at 1.5, 3.0, 4.5, 6.0 and 9.0 min later, respectively. Add 3.75 μL of 10% TFA to terminate the reaction and mix well by centrifugation at 8000 rpm for 30 seconds.
Arrange a certain volume of 0.05 μg/μL trypsin solution in another sterile EP. Incubate the EP tubes containing peptides and enzymes at 37° C. for 5 min, and add 9 μL of trypsin solution to each EP tube containing peptides and mix well. Start timing and extract 25 μL of reaction solution at 1.5, 3.0, 4.5, 6.0, 9.0, 15.0, 30.0, and 60.0 min later, respectively. Add 3.75 μL of 10% TFA to terminate the reaction and mix well by centrifugation at 8000 rpm for 30 seconds.
as §2, §3

Another data set deals with α-chymotrypsin (Bos taurus, UniProt P00766). The experiment in a line: Chymotrypsin inhibitory activity of peptides (AAPFpNA hydrolysis; IC50, Ki, residual activity). Format: biochemical. The following applies: for IC50: chymotrypsin 30 nM, AAPFpNA 0.5 mM; for Ki: Ki=IC50/(1+S/Km), Km 0.38 mM. Put shortly:
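Peptide preincubated 10 min at 37 °C with 30 nM α-chymotrypsin in 50 mM Tris-HCl pH 7.8, 20 mM CaCl2; 0.5 mM AAPFpNA then added and A405 read after 90 min. Residual activity versus controls gave IC50; Ki = IC50/(1+S/Km), with Km measured separately.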

Where [1] appears, read: isolated enzyme trypsin, pH 7.8.

By share remaining is commonly meant what is left of the initial amount, in per cent. A high value points to less turnover. As to `CC[C@H](C)[C@@H]1NC(=O)[C@H](CO)NC(=O)[C@H](Cc2ccc(O)cc2)NC(=O)[C@H]([C@@H](C)O)NC(=O)[C@@H](NC(=O)[C@H](Cc2ccccc2)NC(=O)CNC(=O)[C@@H]2CCCN2C(=O)[C@@H](NC(=O)CNC(=O)[C@H](CO)NC(=O)CNC(=O)[C@@H](NC(=O)[C@H](CC(N)=O)NC(=O)[C@@H](NC(=O)[C@H](CCCNC(=N)N)NC(=O)[C@@H]2CCCN2C(=O)[C@H](Cc2ccc(O)cc2)NC(=O)[C@@H](NC(=O)[C@H](CCC(N)=O)NC(=O)[C@H](CC(C)C)NC(=O)[C@H](CCCCN)NC(=O)[C@H](Cc2c[nH]cn2)NC(=O)[C@H](C)NC(=O)[C@H](CCC(=O)O)NC(=O)[C@H](CCC(N)=O)NC(=O)[C@H](CO)NC(=O)[C@H](CC(C)C)NC(=O)[C@H](CCCCN)NC(=O)CNC(=O)[C@H](CC(C)C)NC(=O)CNC(=O)[C@@H]2CSSC[C@H](N)C(=O)N[C@@H](CO)C(=O)N[C@@H](CC(N)=O)C(=O)N[C@@H](CC(C)C)C(=O)N[C@@H](CO)C(=O)N[C@@H]([C@@H](C)O)C(=O)N2)[C@@H](C)O)[C@@H](C)O)[C@@H](C)O)[C@@H](C)O)CSSC[C@@H](C(=O)N[C@@H](Cc2ccc(O)cc2)C(=O)NCC(=O)O)NC(=O)[C@H](CCC(N)=O)NC(=O)[C@@H]2CCCN2C(=O)[C@@H]2CCCN2C1=O` [Cal-CH], on chymotrypsin, the “stability towards chymotrypsin hydrolysis (in words)” value is “resistant to the corresponding protease degradation”; the “Remaining peak area (%)/chymotrypsin” value is 100.0 ± 0.0%; the share remaining at 0.025 h, 60 μM turned out to be 89.3 ± 2.9%; the fraction remaining at 0.05 h, 60 μM was found to be 90.9 ± 4.7%. Also, at chymotrypsin, the amount remaining at 0.075 h, 60 μM was found to be 83.8 ± 0.4%; the fraction remaining at 0.1 h, 60 μM was found to be 82.2 ± 4.1%; the share remaining at 0.15 h, 60 μM is 52.4%; the share remaining at 0.25 h, 60 μM is 51.8 ± 0.4%. At chymotrypsin, this compound yielded a share remaining at 0.5 h, 60 μM of 51.2 ± 1.8% and an amount remaining at 1 h, 60 μM of 24.6 ± 0.5%. Moreover, the “Remaining peak area (%)/Trypsin” value on trypsin (0 h) came out at 100.0 ± 0.0%. At trypsin (setting [1]), this compound came in with a share remaining at 0.025 h, 60 μM of 13.4 ± 2.3%; a share remaining at 0.05 h, 60 μM of 0%; an amount remaining at 0.075 h, 60 μM of 0%; an amount remaining at 0.1 h, 60 μM of 0%. The share remaining at 0.15 h, 60 μM on trypsin (setting [1]) amounted to 0%.
As a reminder, the IC50 is the midpoint of a concentration-inhibition curve. Take `CC[C@H](C)[C@@H]1NC(=O)[C@H](CO)NC(=O)[C@H](Cc2ccc(O)cc2)NC(=O)[C@H]([C@@H](C)O)NC(=O)CNC(=O)[C@H](CO)NC(=O)CNC(=O)[C@@H](N)CSSC[C@@H](C(=O)N[C@@H](Cc2ccc(O)cc2)C(=O)NCC(=O)O)NC(=O)[C@H](CCC(N)=O)NC(=O)[C@@H]2CCCN2C(=O)[C@@H]2CCCN2C1=O` [CH6] (H-CGSGTYSIPPQCYG-OH; disulfide 1-12; N-terminus and C-terminus assumed): on α-chymotrypsin, the IC50 is > 50 µM.
On to `CSCC[C@@H]1NC(=O)CNC(=O)[C@@H]2CCCN2C(=O)[C@H](CC(=O)O)NC(=O)[C@H](CO)NC(=O)[C@H](Cc2ccccc2)NC(=O)[C@H]([C@@H](C)O)NC(=O)[C@@H](NC(=O)[C@@H](N)CCSC)CSSC[C@@H](C(=O)N[C@@H](CO)C(=O)O)NC1=O` [CH50] (H-MCTFSDPGMCS-OH; disulfide 2-10; N-terminus and C-terminus assumed), for which, at α-chymotrypsin, the IC50 is > 50 µM.
Consider `CC[C@H](C)[C@@H]1NC(=O)[C@H](CO)NC(=O)[C@H](Cc2ccc(O)cc2)NC(=O)[C@H]([C@@H](C)O)NC(=O)[C@H](C)NC(=O)[C@H](CC(N)=O)NC(=O)CNC(=O)[C@@H](N)CSSC[C@@H](C(=O)N[C@@H](Cc2ccc(O)cc2)C(=O)NCC(=O)O)NC(=O)[C@H](CCC(N)=O)NC(=O)[C@@H]2CCCN2C(=O)[C@@H]2CCCN2C1=O` [CH21] (H-CGNATYSIPPQCYG-OH; disulfide 1-12; N-terminus and C-terminus assumed), for which the IC50 on α-chymotrypsin was > 50 µM.
One may read the Ki as the equilibrium dissociation constant of an inhibitor or competing ligand from its target. The low end stands for tighter binding, the high end for weaker binding. On α-chymotrypsin, `C[C@@H]1NC(=O)[C@@H](NC(=O)[C@@H](N)Cc2ccccc2)CSSC[C@@H](C(=O)N[C@@H](CCC(N)=O)C(=O)O)NC(=O)[C@H](CCCCN)NC(=O)[C@@H]2CCCN2C(=O)[C@@H]2CCCN2C(=O)[C@H](Cc2ccc(O)cc2)NC(=O)[C@H](CO)NC(=O)[C@H](Cc2ccc(O)cc2)NC1=O` [CH45] (H-FCAYSYPPKCQ-OH; disulfide 2-10; N-terminus and C-terminus assumed) yielded a Ki of 8.29 µM and a concentration for half-maximal inhibition (IC50) of 19.2 µM.
On the same counts, the results for `CSCC[C@@H]1NC(=O)[C@H](CO)NC(=O)[C@H](Cc2ccc(O)cc2)NC(=O)[C@H]([C@@H](C)O)NC(=O)[C@@H](NC(=O)[C@@H](N)Cc2ccccc2)CSSC[C@@H](C(=O)N[C@H](C(=O)O)C(C)C)NC(=O)[C@H](Cc2c[nH]cn2)NC(=O)[C@@H]2CCCN2C(=O)[C@@H]2CCCN2C1=O` [CH41] (H-FCTYSMPPHCV-OH; disulfide 2-10; N-terminus and C-terminus assumed) are 1.12 µM and 2.6 µM.
In the case of `CSCC[C@H](N)C(=O)N[C@H]1CSSC[C@@H](C(=O)N[C@H](C(=O)O)C(C)C)NC(=O)[C@H](CCCCN)NC(=O)[C@H](C)NC(=O)[C@@H]2CCCN2C(=O)[C@H](Cc2c[nH]cn2)NC(=O)[C@H](CO)NC(=O)[C@H](Cc2ccccc2)NC(=O)[C@H]([C@@H](C)O)NC1=O` [CH49] (H-MCTFSHPAKCV-OH; disulfide 2-10; N-terminus and C-terminus assumed), at α-chymotrypsin, the “inhibitory activity against chymotrypsin (in words)” value is on record as “good chymotrypsin inhibitory activity”; the affinity, expressed as Ki, was 9.81 µM; half-maximal inhibition (IC50) required 22.7 µM.
Consider `CC[C@H](C)[C@H](N)C(=O)N[C@@H](Cc1c[nH]cn1)C(=O)N[C@H](C(=O)N[C@H](C(=O)N[C@H](C(=O)N1CCC[C@H]1C(=O)N[C@@H](C)C(=O)N[C@@H](CC(=O)O)C(=O)N[C@@H](CC(C)C)C(=O)N[C@@H](Cc1c[nH]c2ccccc12)C(=O)N[C@@H](CC(=O)O)C(=O)N[C@@H](Cc1c[nH]c2ccccc12)C(=O)N[C@H](C(=O)N[C@@H](CC(N)=O)C(=O)NCC(=O)N[C@H]1CSSC[C@@H](C(=O)N[C@@H](Cc2ccccc2)C(=O)O)NC(=O)[C@H]([C@@H](C)CC)NC(=O)[C@@H]2CCCN2C(=O)[C@@H]2CCCN2C(=O)[C@H]([C@@H](C)CC)NC(=O)[C@H](CO)NC(=O)[C@H](CCCCN)NC(=O)[C@H]([C@@H](C)O)NC(=O)[C@H](C)NC(=O)[C@H](CCCNC(=N)N)NC(=O)CNC1=O)[C@@H](C)CC)[C@@H](C)CC)[C@@H](C)O)C(C)C` [17A-BT] (H-IHVTIPADLWDWINGCGRATKSIPPICF-OH; disulfide 16-27), for which, at chymotrypsin, the “Remaining peak area (%)/chymotrypsin” value is given as 100.0 ± 0.0%; the fraction remaining at 0.025 h, 60 μM was 69.6 ± 3%; the amount remaining at 0.05 h, 60 μM is 68.9 ± 4.8%; the amount remaining at 0.075 h, 60 μM was determined as 48.1 ± 4.3%. At chymotrypsin, this compound gave a share remaining at 0.1 h, 60 μM of 45.2 ± 1.3%; a fraction remaining at 0.15 h, 60 μM of 42.9 ± 3%; an amount remaining at 0.25 h, 60 μM of 37 ± 1.7%; a share remaining at 0.5 h, 60 μM of 26.4 ± 0.4%. The share remaining at 1 h, 60 μM at chymotrypsin worked out at 9.6 ± 0.8%. Further, the “stability towards trypsin hydrolysis (in words)” value at trypsin is recorded as “tolerated to the degradation of corresponding serine proteases”.
Regarding `CC[C@H](C)[C@@H]1NC(=O)[C@H](CO)NC(=O)[C@H](Cc2ccc(O)cc2)NC(=O)[C@H]([C@@H](C)O)NC(=O)[C@H](C)NC(=O)[C@H](CO)NC(=O)[C@@H](N)CSSC[C@@H](C(=O)N[C@@H](Cc2ccc(O)cc2)C(=O)O)NC(=O)[C@H](CCC(N)=O)NC(=O)[C@@H]2CCCN2C(=O)[C@@H]2CCCN2C1=O` [CH8] (H-CSATYSIPPQCY-OH; disulfide 1-11; N-terminus and C-terminus assumed), at α-chymotrypsin, the IC50 was > 50 µM.
